Results taken from patent US9801961B2, “2-phenylimidazo[1,2-a]pyrimidines as imaging agents” (Hoffmann-La Roche Inc., priority 2013, dated 2017).

Tested on: native tau aggregates
Test: TAU radioligand in vitro displacement assay ([3H]T808 autoradiography on human AD brain sections)
Format: binding
Conditions: radioligand [3H]T808 10 nM, 50 mM Tris pH 7.4, room temperature, 30 min; for % displacement of [3H]T808 (10 nM) at 10 nM: compound 10 nM; for % displacement of [3H]T808 (10 nM) at 1 uM: compound 1 uM
Description: TAU Radioligand-In-Vitro Displacement Assay
This in vitro binding assay assesses the affinity of compounds for native tau aggregates. The compounds are co-incubated with the well-established tau specific radioligand [^3H]T808 and the compound's displacement potency of [^3H]T808 binding is determined by in vitro autoradiography using human Alzheimer's disease (AD) brain sections (FIG. 1).
AD human brains are purchased from Banner Sun Health Research Institute (Sun City, Ariz., USA). Pathological diagnosis of AD is made according to standard NIA-Reagan Institute criteria based on neuropathological data. The radioligand [^3H]T808 was synthesized in-house ([^3H]-2-[4-(2-Fluoro-ethyl)-piperidin-1-yl]-benzo[4,5]imidazo[1,2-a]pyrimidine, radiochemical purity 99.0%). As a reference cold T808 is used (2-[4-(2-Fluoro-ethyl)-piperidin-1-yl]-benzo[4,5]imidazo[1,2-a]pyrimidine). For the autoradiography FujiFilm Imaging Plates (BAS-IP TR 2025) are exposed to the sections and read with a FujiFilm IP reader (BAS-5000).
Ten μm thick human AD brain sections are generated with a cryostat (Leica CM3050) at −17° C. chamber temperature and −15° C. object temperature. Sections are transferred to Histobond+microscope slides (Marienfeld Laboratory Glasware). After drying for 3 hours at room temperature the sections are stored at −20° C. The sections are incubated with the radioligand (10 nM) and the respective cold compound (at various concentrations) in 50 mM Tris buffer, pH 7.4 at room temperature for 30 min. After washing 3×10 min at 4° C. in 50 mM Tris buffer, pH 7.4 and 3 quick dips in H2O dist. at 4° C. the sections are dried at 4° C. for 3 h. The sections are placed in a FujiFilm Cassette (BAS 2025), exposed with an Imaging Plate for five days and afterwards scanned with a resolution of […].
The signal intensity (Dens—PSL/mm2) in the region of interest (ROI) of the autoradiogram is quantified with the software MCID analysis (version 7.0, Imaging Research Inc.). The specific binding (SB) of [^3H]T808 binding in absence or in presence of a compound is calculated by subtracting the non-specific binding signal in the white matter, thus yielding SB[3H]T808 only and SBcompund. The % displacement by the various compounds is calculated as following: % displacement=100−(SBcompund/SB[3H]T808 only)*100.
In each experiment cold T808 is used as a positive internal control. Co-incubation of equimolar amounts of hot and cold T808 is expected to reduce specific binding by approximately 50%.

COc1ccc(-c2cn3ccc(N4CCC(F)CC4)nc3n2)cc1 [Example 3, 7-(4-Fluoropiperidin-1-yl)-2-(4-methoxyphenyl)imidazo[1,2-a]pyrimidine] was tested, and the “% displacement of [3H]T808 (10 nM) at 10 nM” value (from here on “% displacement … at 10 nM”) was 31% and the “% displacement of [3H]T808 (10 nM) at 1 uM” value (from here on “% displacement … at 1 uM”) was 87%.
With FCOc1cccc(-c2cn3ccc(N4CCCC4)nc3n2)c1 [Example 16, 2-[3-(Fluoromethoxy)phenyl]-7-pyrrolidin-1-ylimidazo[1,2-a]pyrimidine] the “% displacement … at 10 nM” value was 27% and the “% displacement … at 1 uM” value was 88%.
With FCCOc1cccc(-c2cn3ccc(N4CCCC4)nc3n2)c1 [Example 17, 2-[3-(2-Fluoroethoxy)phenyl]-7-pyrrolidin-1-ylimidazo[1,2-a]pyrimidine] the “% displacement … at 1 uM” value was 76%.
With COc1cccc(-c2cn3ccc(N4CCCC4)nc3n2)c1 [Example 47, 2-(3-Methoxyphenyl)-7-pyrrolidin-1-ylimidazo[1,2-a]pyrimidine] the “% displacement … at 10 nM” value was 20%.
Cc1ccc(-c2cn3ccc(N4CCC(F)CC4)nc3n2)cc1 [Example 11, 7-(4-Fluoropiperidin-1-yl)-2-(4-methylphenyl)imidazo[1,2-a]pyrimidine] was tested, and the “% displacement … at 10 nM” value was 4% and the “% displacement … at 1 uM” value was 81%.
For FC1CCN(c2ccn3cc(-c4ccc5c(c4)OCCO5)nc3n2)CC1 [Example 8, 2-(2,3-Dihydro-1,4-benzodioxin-6-yl)-7-(4-fluoropiperidin-1-yl)imidazo[1,2-a]pyrimidine], the “% displacement … at 1 uM” value was 72%.
In the case of Cc1ccc(-c2cn3ccc(N4CCC4)nc3n2)cc1 [Example 94, 7-(Azetidin-1-yl)-2-(4-methylphenyl)imidazo[1,2-a]pyrimidine], the “% displacement … at 10 nM” value is reported as 15%.
With CNc1ccn2cc(-c3ccc(OC)c(OC)c3)nc2n1 [Example 142, 2-(3,4-Dimethoxyphenyl)-N-methylimidazo[1,2-a]pyrimidin-7-amine] the “% displacement … at 10 nM” value was 21%.
COc1ccc(-c2cn3ccc(N4CC(OC)C4)nc3n2)cc1 [Example 81, 7-(3-Methoxyazetidin-1-yl)-2-(4-methoxyphenyl)imidazo[1,2-a]pyrimidine] was tested, and the “% displacement … at 10 nM” value was 16%.
In the case of COc1ccc(-c2cn3ccc(N4CCCCC4)nc3n2)cc1OC [Example 53, 2-(3,4-Dimethoxyphenyl)-7-piperidin-1-ylimidazo[1,2-a]pyrimidine], the “% displacement … at 10 nM” value is reported as 6%.
For CNc1ccn2cc(-c3cc(OC)cc(OC)c3)nc2n1 [Example 144, 2-(3,5-Dimethoxyphenyl)-N-methylimidazo[1,2-a]pyrimidin-7-amine], the “% displacement … at 10 nM” value was 14%.
With COc1ccc(-c2cn3ccc(N4CC(F)C4)nc3n2)cc1 [Example 70, 7-(3-Fluoroazetidin-1-yl)-2-(4-methoxyphenyl)imidazo[1,2-a]pyrimidine] the “% displacement … at 10 nM” value was 25%.
In the case of FCCC1CCN(c2ccn3cc(-c4ccccc4)nc3n2)CC1 [Example 54, 7-[4-(2-Fluoroethyl)piperidin-1-yl]-2-phenylimidazo[1,2-a]pyrimidine], the “% displacement … at 10 nM” value is reported as 14%.
In the case of Cc1ccc(-c2cn3ccc(N(C)C)nc3n2)cc1 [Example 39, N,N-Dimethyl-2-(4-methylphenyl)imidazo[1,2-a]pyrimidin-7-amine], the “% displacement … at 10 nM” value is reported as 49%.
In the case of CN(C)c1ccc(-c2cn3ccc(NCCF)nc3n2)cc1 [Example 96, 2-[4-(Dimethylamino)phenyl]-N-(2-fluoroethyl)imidazo[1,2-a]pyrimidin-7-amine], the “% displacement … at 10 nM” value is reported as 34%.
For Oc1ccc(-c2cn3ccc(N4CCCC4)nc3n2)cc1 [Example 28, 4-(7-Pyrrolidin-1-ylimidazo[1,2-a]pyrimidin-2-yl)phenol], the “% displacement … at 10 nM” value was 22%.
For COc1ccc(-c2cn3ccc(N4CCC4)nc3n2)cc1OC [Example 128, 7-(Azetidin-1-yl)-2-(3,4-dimethoxyphenyl)imidazo[1,2-a]pyrimidine], the “% displacement … at 10 nM” value was 15%.
In the case of COc1ccc(-c2cn3ccc(N4CCOCC4)nc3n2)cc1 [Example 25, 4-[2-(4-Methoxyphenyl)imidazo[1,2-a]pyrimidin-7-yl]morpholine], the “% displacement … at 10 nM” value is reported as 16%.
In the case of FCOc1ccc(-c2cn3ccc(N4CCC4)nc3n2)cc1 [Example 97, 7-(Azetidin-1-yl)-2-[4-(fluoromethoxy)phenyl]imidazo[1,2-a]pyrimidine], the “% displacement … at 10 nM” value is reported as 30%.
In the case of Cl.FCCN1CCN(c2ccn3cc(-c4ccccc4)nc3n2)CC1 [Example 24, 7-[4-(2-Fluoroethyl)piperazin-1-yl]-2-phenylimidazo[1,2-a]pyrimidine hydrochloride], the “% displacement … at 1 uM” value is reported as 64%.
With COc1ccc(-c2cn3ccc(N(C)C)nc3n2)cc1 [Example 36, 2-(4-Methoxyphenyl)-N,N-dimethylimidazo[1,2-a]pyrimidin-7-amine] the “% displacement … at 10 nM” value was 47%.
With FC1CCN(c2ccn3cc(-c4ccsc4)nc3n2)CC1 [Example 63, 7-(4-Fluoropiperidin-1-yl)-2-thiophen-3-ylimidazo[1,2-a]pyrimidine] the “% displacement … at 1 uM” value was 70%.
Cc1ccc(-c2cn3ccc(N4CCCCC4)nc3n2)cc1 [Example 51, 2-(4-Methylphenyl)-7-piperidin-1-ylimidazo[1,2-a]pyrimidine] was tested, and the “% displacement … at 10 nM” value was 8%.
In the case of CN(C)c1ccn2cc(-c3ccc4c(c3)OCCO4)nc2n1 [Example 38, 2-(2,3-Dihydro-1,4-benzodioxin-6-yl)-N,N-dimethylimidazo[1,2-a]pyrimidin-7-amine], the “% displacement … at 10 nM” value is reported as 37%.
Cc1cccc(-c2cn3ccc(N4CCC4)nc3n2)c1 [Example 95, 7-(Azetidin-1-yl)-2-(3-methylphenyl)imidazo[1,2-a]pyrimidine] was tested, and the “% displacement … at 10 nM” value was 38%.
With FC1CCN(c2ccn3cc(-c4ccc(N5CCOCC5)cc4)nc3n2)CC1 [Example 9, 4-[4-[7-(4-Fluoropiperidin-1-yl)imidazo[1,2-a]pyrimidin-2-yl]phenyl]morpholine] the “% displacement … at 1 uM” value was 75%.
With CN(C)c1ccn2cc(-c3ccccc3)nc2n1 [Example 18, N,N-Dimethyl-2-phenylimidazo[1,2-a]pyrimidin-7-amine] the “% displacement … at 10 nM” value was 35% and the “% displacement … at 1 uM” value was 92%.
CNc1ccn2cc(-c3cccc(CO)c3)nc2n1 [Example 114, [3-[7-(Methylamino)imidazo[1,2-a]pyrimidin-2-yl]phenyl]methanol acetic acid adduct] was tested, and the “% displacement … at 10 nM” value was 11%.
With COc1cccc(-c2cn3ccc(N4CCCCC4)nc3n2)c1 [Example 50, 2-(3-Methoxyphenyl)-7-piperidin-1-ylimidazo[1,2-a]pyrimidine] the “% displacement … at 10 nM” value was 14%.
In the case of Cc1cccc(-c2cn3ccc(N(C)CCF)nc3n2)c1 [Example 88, N-(2-Fluoroethyl)-N-methyl-2-(3-methylphenyl)imidazo[1,2-a]pyrimidin-7-amine], the “% displacement … at 10 nM” value is reported as 22%.
With FC1CCN(c2ccn3cc(-c4cc5ccccc5s4)nc3n2)CC1 [Example 75, 2-(1-Benzothiophen-2-yl)-7-(4-fluoropiperidin-1-yl)imidazo[1,2-a]pyrimidine] the “% displacement … at 10 nM” value was 18%.
In the case of Cc1ccc(-c2cn3ccc(N4CCC(CCF)CC4)nc3n2)cc1 [Example 60, 7-[4-(2-Fluoroethyl)piperidin-1-yl]-2-(4-methylphenyl)imidazo[1,2-a]pyrimidine], the “% displacement … at 10 nM” value is reported as 15%.
